Data taken from patent publication US9555028B2, “Drug for preventing/treating ocular disease” (JAPAN BIO PRODUCTS CO., LTD., priority 2012, dated 2017).

Legend:
Muc5ac secretion = assay: In vivo instillation, then Muc5ac secreted into culture supernatant of sampled conjunctival tissue (ELISA); design: species or system white rabbit; settings: 100 μM instilled 4 times per day for 3 days; tissue soaked in HBSS 1.5 and 3 hours, n=6, FIG. 4a
Procedure: In order to examine whether or not Compound 1 enhances Muc5ac secretion, in vivo experiments were carried out using white rabbits (Slc:JW/CSKSlc:NZW strain).
(§1) Specifically, the right eye of a white rabbit was subjected to instillation administration of a solution containing 100 μM of Compound 1, which had been dissolved in a physiological saline solution, at a dosage of 30 μL to 50 μL/dose 4 times per day. The left eye was subjected to instillation administration of a physiological saline solution as a control at a dosage of 30 μL to 50 μL/dose 4 times per day. For each group, the experiment was performed at n=6.
After 3 days with the above administration, each white domestic rabbit was euthanized and its conjunctival tissue was sampled using a trephine with a diameter of 5 mm. The sample was soaked in an HBSS; its culture supernatant was collected after an hour and a half; and further, after 3 hours, its culture supernatant and conjunctival tissue were collected. The amount of Muc5ac included in the culture supernatant was quantified using the same ELISA assay as in Example 1.

[1] = system: corneal epithelial tissue wound; assay: Wound healing effect on corneal epithelial tissue in vivo (fluorescein staining, wound area); design: species or system white rabbit; settings: 100 μM solution instilled 30-50 μL/dose 4 times per day
Procedure: In order to examine an wound healing effect of Compound 1 on an corneal epithelial tissue, in vivo experiments were carried out using white rabbits (Slc:JW/CSKSlc:NZW strain).
Specifically, a trephine with a diameter of 8 mm was used to create a wound on a corneal epithelial tissue of a white rabbit. From the day of creating the wound, the test group was subjected to instillation administration of a solution containing 100 μM of Compound 1, which had been dissolved in a physiological saline solution, at a dosage of 30 μL to 50 μL/dose 4 times per day. The control group was subjected to instillation administration of a physiological saline solution at a dosage of 30 μL to 50 μL/dose 4 times per day. For each group, the experiment was performed at n=5.
In order to determine the area of the wound on the corneal epithelial tissue, a physiological saline solution and a fluorescein test paper were used to perform fluorescein staining of the corneal epithelial tissue; and a time course change in the area of the wound on the corneal epithelium was observed while its photographs were taken. The wound area was image-processed using Image J software and was statistically analyzed.

[2] = system: Muc5ac in conjunctival tissue; assay: In vivo instillation, then PAS staining of conjunctival tissue sections; design: species or system white rabbit; settings: 100 μM instilled 4 times per day, FIG. 5
Procedure: as §1
Further, the conjunctival tissues from the control group and the administration group were subjected to PAS staining, which stains neutral polysaccharides and glycoproteins. Specifically, a conjunctival tissue was collected from a rabbit; the conjunctive tissue collected was cut into regions at the upper, nasal, lower, and ear sides; and paraffin sections were prepared. Next, after washed with distilled water for deparaffinization, the sections were immersed in 3% acetic acid aqueous solution and soaked in an alcian blue solution for 30 minutes. After washed with distilled water, the sections were soaked in 1% periodic acid aqueous solution for 10 minutes, washed with running water for 5 minutes, and washed with distilled water. After soaked in a cold Schiff reagent for 10 minutes, the sections were soaked in sulfurous acid solution for 3 minutes and subjected to sulfurous acid solution treatment. […]

[3] = system: Muc5ac secretion from conjunctival tissue; assay: Ex vivo Muc5ac secretion from conjunctival tissue, culture supernatant quantified by ELISA; format: cell-based, white rabbit; settings: for amount of Muc5ac in culture supernatant in the presence of Compound 1: n=5, FIG. 1(b)
Procedure: In order to examine an effect of Compound 1 on an amount of Muc5ac secretion, ex vivo experiments were carried out using a conjunctival tissue from a white rabbit (Slc:JW/CSKSlc:NZW strain).
Specifically, a trephine with a diameter of 3 mm was used to sample a conjunctival tissue from a white rabbit. Next, the tissue sample was soaked in an HBSS containing 100 μM of Compound 1 for 90 minutes, 3 hours, 6 hours, or 12 hours. The conjunctival tissue of the control group was soaked in an HBSS having a physiological saline with a volume equal to that of Compound 1. After the conjunctival tissue was soaked for a predetermined time, its culture supernatant was collected. For each group, the experiment was performed at n=5.
The amount of Muc5ac included in the culture supernatant was detected using the following assay.
Assay for Muc5ac Secretion (ELISA Assay)
First, the culture supernatant of the conjunctival tissue of the control group was diluted using an HBSS, and a standard curve was prepared at a Muc5ac concentration of 500, 250, 125, 62.5, 31.25, 15.63, and 7.81 AU/mL (AU represents an arbitrary unit). The sample solutions were diluted with an HBSS in such a manner that absorbance at a wavelength of 450 nm was fitted within a range of the absorbance of the standard curve at a wavelength of 450 nm. Next, the solutions for the standard curve, the sample solutions for the test group, and the sample solutions for the control group were added to a 96-well microplate (#3590, manufactured by Corning Incorporated) at 100 μL/well, and were incubated overnight at 40° C. For each sample, the measurement was performed at n=2.
After the solutions for the standard curve and the sample solutions were removed, 200 μL of washing buffer was used to wash the wells three times. The washing buffer (hereinafter, also referred to as a TBST solution) was prepared by adding Tween-20 at a final concentration of 0.05% to Tris buffered saline (pH 7.6).
Then, 200 μL of blocking buffer (1% bovine serum albumin-containing TBST solution) was added to each well, and the plate was incubated at room temperature for 1 hour. After the blocking buffer had been removed, a primary antibody (an anti-human Muc5ac antibody, manufactured by NeoMarkers, Inc.; Clone 45M1) solution, which was 100-fold diluted with the blocking buffer, was added to the plate at 100 μL/well, and the plate was incubated at room temperature for 1 hour. After the primary antibody solution was removed, 200 μL of the washing buffer was used to wash the wells three times.
Then, a secondary antibody (an HRP-labelled sheep anti-mouse IgG antibody, manufactured by GE Healthcare, Inc.) solution, which was 2000-fold diluted with the blocking buffer, was added to the plate at 100 μL/well, and the plate was incubated at room temperature for 1 hour. After the secondary antibody solution was removed, 200 μL of the washing buffer was used to wash the wells three times.
In order to quantify the Muc5ac content in each sample, 100 μL of 3,3′,5,5′-tetramethylbenzidine was added to each well and the plate was incubated for coloring at room temperature for 30 minutes; and then 100 μL of 0.5 M sulfuric acid solution was added to each well to stop the reaction. Next, a microplate reader was used to measure the absorbance of each well at a wavelength of 450 nm. The Muc5ac content in each sample was calculated using the standard curve. […]
The amount of Muc5ac included in the culture supernatant was detected using the same ELISA assay as in Example 1.

[4] = system: Muc5ac protein in conjunctival tissue; assay: In vivo instillation, then amount of Muc5ac protein in conjunctival tissue lysate (ELISA); design: species or system white rabbit; settings: 100 μM instilled 4 times per day for 3 days; tissue lysate at 500 ng/μL protein, FIG. 4b
Procedure: as §1
After 3 days with the above administration, each white domestic rabbit was euthanized and its conjunctival tissue was sampled using a trephine with a diameter of 5 mm. […] The amount of Muc5ac included in the culture supernatant was quantified using the same ELISA assay as in Example 1.
Meanwhile, 150 μL of SDS(−) RIPA lysis buffer (manufactured by Nacalai Tesque, Inc.) was added to the conjunctival tissue collected, and the tissue was soaked and incubated at 4° C. for 30 minutes, followed by homogenization. […] After a protein concentration was measured using Nano Drop (manufactured by Thermo Scientific, Inc.), the protein concentration was adjusted to 500 ng/μL. Subsequently, the amount of Muc5ac included in the protein solution prepared was quantified using the same ELISA assay as in Example 1.

Question: How did the “amount of Muc5ac in culture supernatant of conjunctival tissue compared with control group” value (Muc5ac secretion) turn out when `O=C1NC(CO)C(=O)N2CC(O)CC12` [Compound 1, cyclo-trans-4-L-hydroxyprolyl-L-serine] was run?
Answer: remarkably high

Question: What about the “wound area of corneal epithelium versus control group” value ([1]; from Day 1, t-test p<0.01, FIG. 3) of the same compound?
Answer: smaller

Question: And the “time required for complete cure of the wound” value ([1]; control group 5 days)?
Answer: 4 days

Question: And the “amount of Muc5ac (stained red-purple) in the conjunctival tissue by PAS staining versus control group” value [2]?
Answer: apparently lower

Question: And the “amount of Muc5ac in culture supernatant, concentration dependence” value ([3]; 0, 1, 10 or 100 μM, soaked 6 hours, n=5, FIG. 2)?
Answer: increased depending on the concentration

Question: And the “difference in the amount of Muc5ac between presence and absence of Compound 1, across culture times” value ([3]; 100 μM in HBSS, at 6 hours of culturing)?
Answer: most prominent

Question: What about the “amount of Muc5ac in culture supernatant compared with absence of Compound 1” value ([3]; 100 μM in HBSS, cultured 3 hours, n=5, FIG. 1(a)) of the same compound?
Answer: increased

Question: What about the “amount of Muc5ac in culture supernatant in the presence of Compound 1” value ([3]; 100 μM in HBSS, cultured 6 hours) of the same compound?
Answer: increase

Question: What about the “amount of Muc5ac in culture supernatant in the presence of Compound 1” value ([3]; 100 μM in HBSS, cultured 12 hours) of the same compound?
Answer: increase

Question: And the “amount of Muc5ac protein in the conjunctival tissue versus control group” value [4]?
Answer: approximately equal
